From article PMC10712729, “A Phase I Trial of the Dual MET Kinase/OCT-2 Inhibitor OMO-1 in Metastatic Solid Malignancies Including MET Exon 14 Mutated Lung Cancer” (The Oncologist, 2023)
Where “and” joins values, the source holds several entries; their conditions need not be identical. Identical values can stand only once.

Assay: Phase I safety and tolerability of OMO-1 monotherapy, Module 1 Part A dose escalation (drug-related TEAEs, DLTs, RP2D)
Conditions: for DLTs: first cycle
From the text: This study was part of a modular, first-in-patient, openlabel multicenter study of OMO-1, administered orally, mono-therapy, and in combination with EGFR-TKI, in patients with locally advanced, unresectable, or metastatic solid malignancies (study protocol can be). […] Module 1 (OMO-1 monotherapy) consisted of Part A (dose escalation) and Part B (expansion cohorts). Part A assessed the safety and tolerability of ascending doses of OMO-1 given as monotherapy in unselected patients with locally advanced, unresectable, or metastatic malignancies and determined the recommended phase 2 dose (RP2D). Part B assessed the preliminary efficacy of the RP2D of OMO-1 in patients with METex14-positive NSCLC (cohort 1) and patients with MET amplified NSCLC or patients with other MET positive solid tumors, either METex14 or MET amplification (MET basket; cohort 2). The MET status of the tumor was assessed locally by site-specific guidelines. For MET exon 14 skipping mutations next generation sequencing (NGS) was used and for MET amplifications either NGS or fluorescence in situ hybridization (Supplementary 1). Prior treatment with a MET inhibitor was an exclusion criterion.
OMO-1 was administered orally, twice daily (BID) with a minimal interval of 4-5 h with food in a continuous 21 day/cycle regimen until clinical progression or emergence of significant toxicity. The starting dose was 100 mg BID. The dose was escalated sequentially in cohorts of at least 3 patients using a standard 3 + 3 dose escalation design. […] During the monotherapy dose escalation Module 1 Part A, blood samples were collected for PK analysis throughout the study as per protocol (S1).
The dose-limiting toxicity (DLT) evaluation period was within the first cycle of treatment; although all events beyond this point were also reviewed at the time of dose escalation to ensure an OLED was chosen as RP2D.
Safety analyses were descriptive. With respect to primary objectives and endpoints, no specific hypotheses were tested statistically. The primary focus was on determining the safety profile and RP2D, and the identification of a range of biologically active doses and PK of OMO-1 in patients with cancer. Safety, PK, and PD biomarker data were reviewed on an ongoing basis in line with the cohort progression criteria by the Safety Review Committee (SRC).

FC(F)(c1ccc2ncccc2c1)c1nnc2ccc(-c3ccncc3)nn12 [OMO-1]
increased blood creatinine, drug-related TEAE (100 mg BID cohort): no events | Fatigue, proportion of patients (100 mg BID cohort, 1 patient): 20.0% | Decreased appetite, Drug-related TEAEs, All grades (100 mg BID n = 5): 1 (20%) n (%) | Dizziness, Drug-related TEAEs, All grades (100 mg BID n = 5): 1 (20%) n (%) | Fatigue, Drug-related TEAEs, All grades (100 mg BID n = 5): 1 (20%) n (%) | Headache, Drug-related TEAEs, All grades (100 mg BID n = 5): 1 (20%) n (%) | Nausea, Drug-related TEAEs, All grades (100 mg BID n = 5): 2 (40%) n (%) | Nausea, Drug-related TEAEs, Grade ≥3 (100 mg BID n = 5): 1 (20%) n (%) | Nausea, Drug-related TEAEs, SAE (100 mg BID n = 5): 1 (20%) n (%) | Total n with AE, Drug-related TEAEs, All grades (100 mg BID n = 5): 5 (100%) n (%) | Total n with AE, Drug-related TEAEs, Grade ≥3 (100 mg BID n = 5): 2 (40%) n (%) | Total n with AE, Drug-related TEAEs, SAE (100 mg BID n = 5): 2 (40%) n (%) | Vomiting, Drug-related TEAEs, All grades (100 mg BID n = 5): 1 (20%) n (%) | Vomiting, Drug-related TEAEs, Grade ≥3 (100 mg BID n = 5): 1 (20%) n (%) | Vomiting, Drug-related TEAEs, SAE (100 mg BID n = 5): 1 (20%) n (%) | Anemia, Drug-related TEAEs, All grades (200 mg BID n = 4): 2 (50%) n (%) | Anemia, Drug-related TEAEs, Grade ≥3 (200 mg BID n = 4): 1 (25%) n (%) | Blood creatinine ↑, Drug-related TEAEs, All grades (200 mg BID n = 4): 3 (75%) n (%) | Chills/ influenza like symptoms, Drug-related TEAEs, All grades (200 mg BID n = 4): 1 (25%) n (%) | Chills/ influenza like symptoms, Drug-related TEAEs, SAE (200 mg BID n = 4): 1 (25%) n (%) | Decreased appetite, Drug-related TEAEs, All grades (200 mg BID n = 4): 1 (25%) n (%) | Diarrhoea, Drug-related TEAEs, All grades (200 mg BID n = 4): 2 (50%) n (%) | Dizziness, Drug-related TEAEs, All grades (200 mg BID n = 4): 1 (25%) n (%) | Fatigue, Drug-related TEAEs, All grades (200 mg BID n = 4): 1 (25%) n (%) | Headache, Drug-related TEAEs, All grades (200 mg BID n = 4): 3 (75%) n (%) | Nausea, Drug-related TEAEs, All grades (200 mg BID n = 4): 3 (75%) n (%) | Total n with AE, Drug-related TEAEs, All grades (200 mg BID n = 4): 4 (100%) n (%) | Total n with AE, Drug-related TEAEs, Grade ≥3 (200 mg BID n = 4): 1 (25%) n (%) | Total n with AE, Drug-related TEAEs, SAE (200 mg BID n = 4): 1 (25%) n (%) | Vomiting, Drug-related TEAEs, All grades (200 mg BID n = 4): 2 (50%) n (%) | Vomiting, Drug-related TEAEs, Grade ≥3 (200 mg BID n = 4): 1 (25%) n (%) | diarrhea, all grades (250 mg BD): 14% | nausea, all grades (250 mg BD): 57% | vomiting, all grades (250 mg BD): 43% | Anemia, Drug-related TEAEs, All grades (250 mg BID n = 7): 1 (14%) n (%) | Blood creatinine ↑, Drug-related TEAEs, All grades (250 mg BID n = 7): 3 (43%) n (%) | Blood creatinine ↑, Drug-related TEAEs, Grade ≥3 (250 mg BID n = 7): 1 (14%) n (%) | Decreased appetite, Drug-related TEAEs, All grades (250 mg BID n = 7): 1 (14%) n (%) | Diarrhoea, Drug-related TEAEs, All grades (250 mg BID n = 7): 1 (14%) n (%) | Dizziness, Drug-related TEAEs, All grades (250 mg BID n = 7): 1 (14%) n (%) | Fatigue, Drug-related TEAEs, All grades (250 mg BID n = 7): 3 (43%) n (%) | Fatigue, Drug-related TEAEs, Grade ≥3 (250 mg BID n = 7): 1 (14%) n (%) | Nausea, Drug-related TEAEs, All grades (250 mg BID n = 7): 4 (57%) n (%) | Nausea, Drug-related TEAEs, SAE (250 mg BID n = 7): 1 (14%) n (%) | Tachycardia, Drug-related TEAEs, All grades (250 mg BID n = 7): 1 (14%) n (%) | Total n with AE, Drug-related TEAEs, All grades (250 mg BID n = 7): 7 (100%) n (%) | Total n with AE, Drug-related TEAEs, SAE (250 mg BID n = 7): 1 (14%) n (%) | Vomiting, Drug-related TEAEs, All grades (250 mg BID n = 7): 3 (43%) n (%) | patients discontinued due to related toxicity (350 mg BID and 400 mg BID cohort): 4/8 | increased blood creatinine, drug-related TEAE (350 mg BID cohort): no events | Chills/ influenza like symptoms, Drug-related TEAEs, All grades (350 mg BID n = 5): 1 (20%) n (%) | Decreased appetite, Drug-related TEAEs, All grades (350 mg BID n = 5): 1 (20%) n (%) | Dizziness, Drug-related TEAEs, All grades (350 mg BID n = 5): 1 (20%) n (%) | Fatigue, Drug-related TEAEs, All grades (350 mg BID n = 5): 3 (60%) n (%) | Headache, Drug-related TEAEs, All grades (350 mg BID n = 5): 1 (20%) n (%) | Nausea, Drug-related TEAEs, All grades (350 mg BID n = 5): 1 (20%) n (%) | Tachycardia, Drug-related TEAEs, All grades (350 mg BID n = 5): 1 (20%) n (%) | Total n with AE, Drug-related TEAEs, All grades (350 mg BID n = 5): 4 (80%) n (%) | Total n with AE, Drug-related TEAEs, SAE (350 mg BID n = 5): 1 (20%) n (%) | Vomiting, Drug-related TEAEs, All grades (350 mg BID n = 5): 3 (60%) n (%) | Vomiting, Drug-related TEAEs, SAE (350 mg BID n = 5): 1 (20%) n (%) | Anemia, Drug-related TEAEs, All grades (400 mg BID n = 3): 1 (33%) n (%) | Blood bilirubin ↑, Drug-related TEAEs, All grades (400 mg BID n = 3): 1 n (%) | Blood bilirubin ↑, Drug-related TEAEs, SAE (400 mg BID n = 3): 1 (33%) n (%) | Blood creatinine ↑, Drug-related TEAEs, All grades (400 mg BID n = 3): 3 (100%) n (%) | Blood creatinine ↑, Drug-related TEAEs, SAE (400 mg BID n = 3): 1 (33%) n (%) | Chills/ influenza like symptoms, Drug-related TEAEs, All grades (400 mg BID n = 3): 1 (33%) n (%) | Chills/ influenza like symptoms, Drug-related TEAEs, Grade ≥3 (400 mg BID n = 3): 1 (33%) n (%) | Chills/ influenza like symptoms, Drug-related TEAEs, SAE (400 mg BID n = 3): 1 (33%) n (%) | Decreased appetite, Drug-related TEAEs, All grades (400 mg BID n = 3): 0 n (%) | Diarrhoea, Drug-related TEAEs, All grades (400 mg BID n = 3): 1 (33%) n (%) | Diarrhoea, Drug-related TEAEs, SAE (400 mg BID n = 3): 1 (33%) n (%) | Fatigue, Drug-related TEAEs, All grades (400 mg BID n = 3): 2 (67%) n (%) | Nausea, Drug-related TEAEs, All grades (400 mg BID n = 3): 1 (33%) n (%) | Nausea, Drug-related TEAEs, SAE (400 mg BID n = 3): 1 (33%) n (%) | Neutrophil count↓, Drug-related TEAEs, All grades (400 mg BID n = 3): 1 n (%) | Neutrophil count↓, Drug-related TEAEs, SAE (400 mg BID n = 3): 1 (33%) n (%) | Tachycardia, Drug-related TEAEs, All grades (400 mg BID n = 3): 1 (33%) n (%) | Total n with AE, Drug-related TEAEs, All grades (400 mg BID n = 3): 3 (100%) n (%) | Total n with AE, Drug-related TEAEs, Grade ≥3 (400 mg BID n = 3): 1 (33%) n (%) | Total n with AE, Drug-related TEAEs, SAE (400 mg BID n = 3): 2 (67%) n (%) | patients discontinued due to related toxicity (100, 200, and 250 mg BID): 25% (4/16) | Anemia, Drug-related TEAEs, All grades (All doses n = 24): 4 (17%) n (%) | Anemia, Drug-related TEAEs, Grade ≥3 (All doses n = 24): 1 (4%) n (%) | Blood bilirubin ↑, Drug-related TEAEs, All grades (All doses n = 24): 1 (4%) n (%) | Blood bilirubin ↑, Drug-related TEAEs, SAE (All doses n = 24): 1 (4%) n (%) | Blood creatinine ↑, Drug-related TEAEs, All grades (All doses n = 24): 9 (38%) n (%) | Blood creatinine ↑, Drug-related TEAEs, Grade ≥3 (All doses n = 24): 1 (4%) n (%) | Blood creatinine ↑, Drug-related TEAEs, SAE (All doses n = 24): 1 (4%) n (%) | Chills/ influenza like symptoms, Drug-related TEAEs, All grades (All doses n = 24): 3 (13%) n (%) | Chills/ influenza like symptoms, Drug-related TEAEs, Grade ≥3 (All doses n = 24): 1 (4%) n (%) | Chills/ influenza like symptoms, Drug-related TEAEs, SAE (All doses n = 24): 2 (8%) n (%) | Decreased appetite, Drug-related TEAEs, All grades (All doses n = 24): 4 (17%) n (%) | Diarrhoea, Drug-related TEAEs, SAE (All doses n = 24): 1 (4%) n (%) | Dizziness, Drug-related TEAEs, All grades (All doses n = 24): 4 (17%) n (%) | Fatigue, Drug-related TEAEs, All grades (All doses n = 24): 10 (42%) n (%) | Fatigue, Drug-related TEAEs, Grade ≥3 (All doses n = 24): 1 (4%) n (%) | Headache, Drug-related TEAEs, All grades (All doses n = 24): 5 (21%) n (%) | Nausea, Drug-related TEAEs, Grade ≥3 (All doses n = 24): 1 (4%) n (%) | Nausea, Drug-related TEAEs, SAE (All doses n = 24): 3 n (%) and 3 (13%) n (%) | Neutrophil count↓, Drug-related TEAEs, All grades (All doses n = 24): 1 (4%) n (%) | Neutrophil count↓, Drug-related TEAEs, SAE (All doses n = 24): 1 (4%) n (%) | Tachycardia, Drug-related TEAEs, All grades (All doses n = 24): 3 (13%) n (%) | Total n with AE, Drug-related TEAEs, All grades (All doses n = 24): 23 (96%) n (%) | Total n with AE, Drug-related TEAEs, Grade ≥3 (All doses n = 24): 6 (25%) n (%) | Total n with AE, Drug-related TEAEs, SAE (All doses n = 24): 7 n (%) and 7 (29%) n (%) | Vomiting, Drug-related TEAEs, All grades (All doses n = 24): 9 (38%) n (%) | Vomiting, Drug-related TEAEs, Grade ≥3 (All doses n = 24): 2 (8%) n (%) | Vomiting, Drug-related TEAEs, SAE (All doses n = 24): 2 n (%) and 2 (8%) n (%) | grade 5 (fatal) TEAEs (Module 1 Part A): No grade 5 (fatal) TEAEs | number of drug-related SAEs (Module 1 Part A, all doses): 11 | number of drug-related TEAE recorded (Module 1 Part A, all doses): 129 | patients discontinued due to toxicity related to OMO-1, in total (Module 1 Part A, all doses): 8 patients | patients with drug-related TEAE (Module 1 Part A, all doses): 23 out of 24 | DLTs (cohort 1 (100 mg BID)): no DLTs | DLTs (cohort 2 (200 mg BID)): no DLTs | number of TEAEs that led to OMO-1 treatment discontinuation (cohort 3 (400 mg BID)): 6 TEAEs | patients requiring a dose reduction due to treatment-related toxicity (cohort 3 (400 mg BID)): 2 out of 3 | DLTs (cohort 3 (400 mg BID)): no DLTs | DLTs (cohort 4 (250 mg BID)): No DLTs | peripheral edema related to OMO-1 (in vivo): No reports | recommended phase 2 dose (RP2D) (oral monotherapy, 3 + 3 dose escalation, continuous 21 day/cycle): 250 mg BID
